From patent publication US10076246B2, “Method and apparatus for noninvasive quantitative detection of fibrosis in normal and viable myocardium by MRI” (Oregon Health & Science University, priority 2007, dated 2018)

Experiments:
[1] = at 37° C.; cited from earlier work
[2] = Ex-vivo contrast-enhanced MRI (3 Tesla, T1 inversion recovery) measurement of gadodiamide partition coefficient / relative distribution volume in postmortem myocardium samples; assay type: in vitro ADME, human; settings: 24 hours incubation in ~3 mM gadodiamide-saline solution
Method: As an example of the above-described methodology, eight samples of human myocardium were obtained postmortem and a fast spin-echo sequence (3 Tesla) with non-slice selective inversion pulse performed before and after immersion in a gadodiamide saline solution for determination of the gadodiamide partition coefficient. T1 values were calculated from the inversion recovery signal curves. The same samples were fixed in formalin, and the collagen volume fraction was determined by the picrosirius red method using a semi-automated, polarized, digital microscopy system. […] Moreover, there was a significant positive correlation between the two methods, across all three histological categories of myocardial fibrosis (r=0.73; p=0.017). Thus, these findings indicate an expanded potential for contrast enhanced MRI as a novel, non-invasive alternative to histological evaluation, for the quantification of both interstitial and replacement myocardial fibrosis.
In accordance with an exemplary embodiment as outlined briefly above, eight samples of myocardium were obtained from deceased patients. Each sample of ventricular myocardium was 1 to 2 cm in thickness, and cut at the mid-level of the ventricular septum to include left and right ventricular free walls. All samples were stored at −80° C. until time of analysis.
A pre-contrast MRI was performed approximately 10-12 hours after thawing each sample. […] The longitudinal relaxation time T1 of myocardial tissue and saline was measured with a spin-echo MRI pulse sequence with non-slice-selective inversion pulse, and for 12-15 inversion delays (inversion times in the range from T1=50 to 2000 ms). […]
After the first MRI scan, the sample was incubated at 3-4° C. in a gadodiamide—saline solution for 24 hours (initial gadodiamide concentration in saline before immersion of tissue slice was ˜3 mM; saline R1 at 3 Tesla after 24 hours incubation: 3.9±0.3 s^−1). […] The effects of duration of thawing were also evaluated. […] Accordingly, these two sets of samples with different durations of thawing were analyzed separately. […]

CNC(=O)CN(CCN(CCN(CC(=O)[O-])CC(=O)NC)CC(=O)[O-])CC(=O)[O-].[Gd+3] [gadodiamide]
osmolality [1]: 789 mOsmol/kg water
mean gadodiamide distribution volume (with 95% confidence interval) ([2]; interstitial fibrosis myocardium): 0.43+/−0.22
mean gadodiamide distribution volume (with 95% confidence interval) ([2]; normal myocardium): 0.17+/−0.05
mean gadodiamide distribution volume (with 95% confidence interval) ([2]; replacement fibrosis myocardium): 0.46+/−0.05
